Results published in US5008416A, “Organogermanium compound, process for the preparation of same as well as use thereof” (Sanwa Kagaku Kenkyusho Co., Ltd., priority 1989, dated 1991).
Where two headings read alike, the source gives them in different places.

What was measured:
[1] = system: tumor bearing mice; test: Influence on delayed type hypersensitivity in tumor bearing mice (Pharmacological Experiment 3); format: in vivo, mouse (ICR male); conditions: for Foot pad swelling: 24 hours, mean ± standard error, n = 10
Procedure: To investigate the effect of the organogermanium compound on the cellular immunity, we employed the delayed type hypersensitivity (DTH) of mice. Tumor bearing mice were used as experimental animals with reduced immunity and effect of the compound on the reduced DTH reaction was assayed.
Sarcoma 180 cells (10^6 cells) were intraperitoneally implanted to ICR male mice (age of 8 weeks) and after 3 hours from the implantation, 10^6 cells of SRBC were injected by intravenous route. Four days later, 2×10^8 cells of SRBC were intracutaneus injection to hind foot pad. After 24 hours from the injection, the swelling of the foot pad was observed by stereoscopic microscope.
To the mice in each test group, the organogermanium compound (Example 4) dissolved in 4% bovine serum albumin was orally administered at the time 4 days before the immunization at the dose of 0.1, 1.0 and 10.0 mg/kg.

[2] = system: acute liver injury induced by galactosamine (serum transaminases); test: Action to acute liver injury induced by galactosamine (Pharmacological Experiment 10); format: in vivo, rat (Wister male); conditions: for s-GPT / s-GOT: 5 days, 48 hours, mean ± standard error, n = 10
Procedure: An action of the organogermanium compound of the invention to an acute liver injury to be induced by galactosamine, as an experimental model for liver injury is checked, through measurement of serum transaminases, as indexes.
To Wister male rats (n=10 for each group), galactosamine was administered into abdominal canal by a dose of 400 mg/kg at 2 times with an interval of 6 hours to induce a acute liver injury.
To the […] in each Test group, the compound according to the invention (Example 4) dissolved in 4% bovine serum albumin solution was orally administered by 0.1, 1.0 or 10.0 mg/kg/day over 5 days beginning from 3 days before the administration of galactosamine.
After having lapsed 48 hours from the first administration of galactosamine, a blood letting was carried out to measure GOT and GPT values in serum.

[3] = system: interferon (IFN) production; format: in vivo, mouse (BALB/c male); conditions: for INF titer: lung supernatant, three days, mean ± standard error, n = 5
[4] = system: normal mice; test: Influence on delayed type hypersensitivity in normal mice (Pharmacological Experiment 4); format: in vivo, mouse (ICR male); conditions: for Food pad swelling: 24 hours, mean ± standard error, n = 10
Procedure: Influence of the organogermanium compound on the DTH response of normal mice is investigated.
Normal ICR male mice (age of 8 weeks) were immunized with 10^6 cells of SRBC by intravenous route. On 4 days after immunization, the organogermanium compound (Example 4) dissolved in 4% bovine serum albumin was orally administered at the dose of 0.1, 1.0 and 10.0 mg/kg. Just after the treatment with the compound, mice were challenged to intracutaneus injection of 2×10^8 cells of SRBC to hind food pad.
After 24 hours from the injection, the swelling of the foot pad was observed by a stereoscopic microscope.

[5] = system: chronic liver injury induced by carbon tetrachloride (serum transaminases); test: Action to chronic liver injury induced by carbon tetrachloride (Pharmacological Experiment 11); format: in vivo, rat (Wister male); conditions: for s-GOT / s-GPT: 10 weeks every other day, mean ± standard error, n = 10
Procedure: An action of the organogermanium compound of the invention to a chronic liver injury to be induced by carbon tetrachloride, as an experimental model for liver injury is checked, through measurement of serum transaminases, as indexes.
To Wister male rats (n=10 for each group), carbon tetrachloride was intraperitoneally administered at the dose of 480 mg/kg at 2 times by each week for 10 weeks to induce a chronic liver injury.
To the […] in each Test group, the compound according to the invention (Example 4) dissolved in 4% bovine serum albumin solution was orally administered at the dose of 0.1, 1.0 and 10.0 mg/kg/day over 10 weeks in every other day.
After having lapsed 2 days from the final administration of carbon tetrachloride, a blood letting was carried out to measure GOT and GPT values in serum.

[6] = system: Vaccinia virus (DI strain); format: in vivo, mouse (ddy male); conditions: for Inhibition (pocks) / Number of pocks: 7th day; for Number of pocks: mean ± standard error, n = 10, (***) p < 0.001 vs Control
[7] = system: NZB/WF1 mice; test: Influence on antibody production in NZB/WF1 mice (Pharmacological Experiment 2); format: in vivo, mouse (NZB/WF1 female); conditions: for Number of PFC: 3 times, mean ± standard error, n = 5, (*) significant vs Control
Procedure: Influence of the organogermanium compound on antibody production is checked with use of NZB/WF1 mice who generate an autoimmune disease due to polyclonal activation of B cells, caused by functional reduction of suppresser T cell activities.
NZB/WF1 female mice (age of 11 weeks) were classified into Control group and Test groups (5 mice for each group), and 2×10^8 cells of SRBC were injected in a tail vein of each mouse for sensitization.
To the mice in each Test group, the organogermanium compound (Example 4) dissolved in 4% bovine serum albumin solution was orally administered in a dose of 1.0 or 10.0 mg/kg/day at 3 time, namely the day before, just after and the day after the sensitization.
After 4 days from the sensitization, spleen was removed from each mouse and number of PFC in 10^6 spleen cells was measured, as an index of the antibody production in the NZB/WF1 mice.

[8] = system: Influenza virus (A/PR/S strain); test: Anti-virus effect, influenza virus infection model of mouse (Pharmacological Experiment 9); format: in vivo, mouse (BALB/c male); conditions: for Ratio of survival / Average life: 6 days; for Ratio of survival: 20 days from infection
Procedure: An antiviral effect of the compound according to the invention is investigated with an experimental influenza virus infection model of mouse.
Influenza virus (A/PR/S strain) was inoculated into a trachea of BALB/c male mice at 9.0 PFU/mouse. The organogermanium compound (Example 4) dissolved in 4% bovine serum albumin solution was orally administered at the dose of 0.1, 1.0 and 10.0 mg/kg once a day for 6 days from the day just after the infection to the 5th day therefrom.
A mortality of the mice was observed over 20 days from the virus infection.

[9] = 1.0 mg/kg/day orally, (*) p < 0.05 vs Control
[10] = 10.0 mg/kg/day orally, (*) p < 0.05 vs Control
[11] = 0.1 mg/kg (as printed in Table 8) orally

## Sodium 2-oxygermylethanesulfonate polymer [Example 4]
[1]; 0.1 mg/kg orally
  Foot pad swelling: 66.8 ± 7.5 ×0.01 mm
[1]; 1.0 mg/kg orally, (***) p < 0.001 vs tumor bearing
  Foot pad swelling: 85.0 ± 5.9 ×0.01 mm
[1]; 10.0 mg/kg orally, (***) p < 0.001 vs tumor bearing
  Foot pad swelling: 74.3 ± 4.9 ×0.01 mm
[1]; 0.1, 1.0 and 10.0 mg/kg orally
  DTH response of tumor bearing mice (result in words): significantly restored the reduced DTH response to normal level
[2]; 0.1 mg/kg/day orally
  s-GPT: 382 ± 151 Karmen Unit
[2]; 0.1 mg/kg/day orally, (*) p < 0.05 vs Control
  s-GOT: 1034 ± 184
[2]; [9]
  s-GPT: 238 ± 87 Karmen Unit
[2]; 1.0 mg/kg/day orally, (***) p < 0.001 vs Control
  s-GOT: 563 ± 133
[2]; [10]
  s-GPT: 275 Karmen Unit
[2]; 10.0 mg/kg/day orally, (**) p < 0.01 vs Control
  s-GOT: 620 ± 201
[2]; 0.1, 1.0 or 10.0 mg/kg/day orally
  GOT and GPT values (result in words): noticeably decreasing GOT and GPT values
[3]; 0.1 mg/kg orally
  INF titer: 49.3 ± 5.3 IU/mg protein
[3]; 1.0 mg/kg orally
  IFN activity, times higher than the control group: about 2.5 times
[3]; 1.0 mg/kg orally, (**) p < 0.01 vs control
  INF titer: 138.3 ± 17.1 IU/mg protein
[3]; 10.0 mg/kg orally
  IFN activity, times higher than the control group: ~2.8 times
[3]; 10.0 mg/kg orally, (**) p < 0.01 vs control
  INF titer: 156.7 ± 28.3 IU/mg protein
[4]; 0.1 mg/kg orally, (**) p < 0.01 vs Control
  Food pad swelling: 70.9 ± 9.1 x 0.01 mm
[4]; 1.0 mg/kg orally, (***) p < 0.001 vs Control
  Food pad swelling: 59.0 ± 6.6 x 0.01 mm
[4]; 10.0 mg/kg orally, (*) p < 0.05 vs Control
  Food pad swelling: 86.9 ± 10.2 x 0.01 mm
[4]; 0.1, 1.0 and 10.0 mg/kg orally
  DTH response of normal mice (result in words): significantly reduced the DTH response of normal mice
[5]; 0.1 mg/kg/day orally
  s-GOT: 1200 ± 180
  s-GPT: 1005 ± 97 Karmen Unit
[5]; [9]
  s-GOT: 1054 ± 140
  s-GPT: 940 ± 83 Karmen Unit
[5]; 10.0 mg/kg/day orally
  s-GPT: 1086 ± 112 Karmen Unit
[5]; [10]
  s-GOT: 1020 ± 164
[5]; by the dose of 1.0 mg/kg orally
  GOT and GPT values (result in words): noticeably decreasing GOT and GPT values
[6]; [11]
  Inhibition (pocks): 41.0%
  Number of pocks: 23 ± 2
[6]; 10.0 mg/kg orally
  Inhibition (pocks): 43.5%
  Number of pocks: 22 ± 4
[6]; orally
  Host defense against Vaccinia virus (result in words): has host defense function against Vaccinia virus infected mice
[7]; 1.0 mg/kg/day orally
  Number of PFC: 3511 ± 302 PFC in 10^6 spleen cells
[7]; 10.0 mg/kg/day orally
  Number of PFC: 3800 ± 360 PFC in 10^6 spleen cells
[7]; treatment groups, 1.0 or 10.0 mg/kg/day orally
  Number of PFC (result in words): the number of PFC was significantly reduced
[8]; 0.1 mg/kg orally once a day
  Ratio of survival: 0/10
[8]; 0.1 mg/kg orally once a day, (*) p < 0.05 vs Control
  Average life: 10.0 days
[8]; 1.0 mg/kg orally once a day
  Ratio of survival: 4/10
[8]; 1.0 mg/kg orally once a day, (***) p < 0.001 vs Control
  Average life: 15.2 days
[8]; 1.0 mg/kg orally, 20 days from the infection
  Mice alive at end of test period: 4 mice
[8]; 10.0 mg/kg orally once a day
  Ratio of survival: 3/10
[8]; 10.0 mg/kg orally once a day, (**) p < 0.01 vs Control
  Average life: 13.7 days
[8]; each of Testing groups, 0.1, 1.0 and 10.0 mg/kg orally
  Average life vs Control group (result in words): a significant difference has been recognized
